Like-named read-outs stand apart in the source and are kept apart here.
How the values were obtained:
[1] = molecular target: KRAS-G13D (Homo sapiens, UniProt P01116, G13D); assay: SOS-catalyzed nucleotide exchange assay (Procedure A, TR-FRET), KRAS-G13D; format: biochemical; conditions: nucleotide exchange, Procedure A; read-out: KRAS G13D GNE IC50
Description: (§1) Procedure for SOS-Catalyzed Nucleotide Exchange Assay for KRAS-WT, G12C/D/V, G13D, HRAS, and NRAS (Procedure A)
(§2) Recombinant KRAS-G12C protein used in this assay has an additional triple mutation (C51S/C80L/C118S). Whereas KRAS-WT, G12D/V, G13D, HRAS and NRAS are in context of their WT protein sequence background. Specifically, the SOS-catalyzed nucleotide exchange assay utilizes a preformed TR-FRET complex containing a specific biotinylated RAS protein (KRAS-WT, G12C/V/D, G13D, HRAS, NRAS; described above) with Bodipy-GDP, and Terbium-streptavidin. Compounds are preincubated with this complex for 60 minutes. Subsequently, recombinant human SOS protein and unlabeled GTP are added to initiate the exchange reaction. Small molecule inhibitors stabilize the Bodipy-GDP complex whereas the untreated protein rapidly exchanges Bodipy-GDP for unlabeled GTP resulting in reduced TR-FRET signal.
(§3) To assemble the preformed TR-FRET complexes, each biotinylated RAS protein is diluted to 2 μM in an EDTA Buffer (20 mM HEPES pH 7.5, 50 mM sodium chloride, 10 mM EDTA, and 0.01% Tween) and incubated at room temperature for one hour. This mixture is then further diluted to 90 nM in an Assay Buffer (20 mM HEPES pH 7.5, 150 mM sodium chloride, 10 mM magnesium chloride, and 0.005% Tween) containing 15 nM of Terbium-Streptavidin (Invitrogen, catalog #PV3577) and 900 nM of Bodipy-GDP (Invitrogen, catalog #G22360) and incubated at room temperature for six hours. It should be noted that this preformed TR-FRET complex for each of the RAS protein were made ahead of time, aliquoted and stored at −80° C. until the day of the experiment.
(§4) Each test compound (10 mM stock in DMSO) is diluted in DMSO to make a final-10-point, 3-fold dilution and is acoustically dispensed into a 384-well assay plate (Corning, catalog #3820) using an Echo 550 (Labcyte). Each well of the assay plate receives 3 μL of a specific 3×RAS preformed TR-FRET complex and 3 μL of Assay Buffer and is incubated at room temperature for 60 minutes (preincubation time). Each well then receives 3 μL of 3×recombinant human SOS protein and GTP (Sigma, G8877) in Assay Buffer and is incubated at room temperature for 30 minutes (G13D), 60 minutes (KRAS WT/G12C/D, H/NRAS) or 90 minutes for G12V. The final reaction in each well of 9 μL consists of 3 mM GTP, specific Ras and SOS proteins in the following concentrations: KRAS-G12C/SOS=3 nM/40 nM, KRAS-WT and G12D/SOS=1 nM/40 nM, KRAS-G12V/SOS=1.25 nM/160 nM. KRAS-G13D/SOS=1.25 nM/0 nM, HRAS and NRAS=1.25 nM/40 nM.
(§5) The time-resolved fluorescence resonance energy transfer (TR-FRET) signal is measured on an Envision (PerkinElmer) plate reader: Excitation filter=340 nm; emission 1=495 nm; emission2=520 nm; dichroic mirror=D400/D505; delay time=[…]. The signal of each well is determined as the ratio of the emission at 520 nm to that at 495 nm. Percent effect of each well is determined after normalization to control wells containing DMSO (no effect) or a saturating concentration of inhibitor (max effect). The apparent effect as a function of compound concentration is fit to a four-parameter logistic equation.

[2] = molecular target: KRAS-G12V (Homo sapiens, UniProt P01116, G12V); assay: SOS-catalyzed nucleotide exchange assay (Procedure A, TR-FRET), KRAS-G12V; format: biochemical; conditions: nucleotide exchange, read-out: KRAS G12V GNE IC50
Sequence of KRAS-G12V (P01116 with tags, fused parts or gaps isoform P01116-2 G12V): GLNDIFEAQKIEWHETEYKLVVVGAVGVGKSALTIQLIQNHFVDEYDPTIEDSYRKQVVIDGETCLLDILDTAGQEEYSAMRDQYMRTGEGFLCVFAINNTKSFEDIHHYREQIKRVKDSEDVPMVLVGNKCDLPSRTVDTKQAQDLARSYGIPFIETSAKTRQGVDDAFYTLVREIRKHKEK
Procedure, shortened: (§6)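 Biotinylated RAS (KRAS-G12C carries C51S/C80L/C118S; others WT background) preloaded with Bodipy-GDP plus Tb-streptavidin, preincubated with compound 60 min at RT, then human SOS and 3 mM GTP added. Final RAS/SOS: G12C 3 nM/40 nM, 60 min; WT 1 nM/40 nM, 60 min; G12V 1.25 nM/160 nM, 90 min; NRAS 1.25 nM/40 nM, 60 min. TR-FRET 520/495 ratio normalized to DMSO and saturating inhibitor; 10-point curves fit four-parameter logistic.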

[3] = test system: AsPC-1 cells; assay: Cellular phospho-ERK assay, AsPC-1 cells (homozygous KRAS-G12D); format: cell-based; conditions: Homo sapiens, ASPC1, 2 h, read-out: AsPC1 pERK IC50
Procedure, shortened: (§7)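 p-ERK/total ERK ratio, measured by AlphaLISA SureFire Ultra multiplex in lysates, was fitted to a 4-parameter logistic model for IC50. Compound exposure was 2 h at 37° C, 5% CO2, 10-point 1:3 dilutions from 30 μM final, on cells plated the previous night.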

[4] = molecular target: KRAS-WT (Homo sapiens, UniProt P01116); assay: SOS-catalyzed nucleotide exchange assay (Procedure A, TR-FRET), KRAS-WT; format: biochemical; conditions: nucleotide exchange, read-out: KRAS WT GNE IC50
Sequence of KRAS-WT (P01116 with tags, fused parts or gaps isoform P01116-2): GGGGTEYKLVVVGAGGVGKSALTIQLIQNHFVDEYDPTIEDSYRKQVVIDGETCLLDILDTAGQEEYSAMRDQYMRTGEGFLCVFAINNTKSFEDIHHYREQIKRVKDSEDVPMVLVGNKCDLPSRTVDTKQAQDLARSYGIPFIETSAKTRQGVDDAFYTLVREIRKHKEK
Procedure, shortened: as §6

[5] = molecular target: KRAS-G12C (C51S/C80L/C118S) (Homo sapiens, UniProt P01116, C118S/C51S/C80L/G12C); assay: SOS-catalyzed nucleotide exchange assay (Procedure A, TR-FRET), KRAS-G12C; format: biochemical; conditions: nucleotide exchange, Procedure A; read-out: KRAS G12C GNE IC50
Sequence of KRAS-G12C (C51S/C80L/C118S) (P01116 with tags, fused parts or gaps isoform P01116-2 G12C/C51S/C80L/C118S): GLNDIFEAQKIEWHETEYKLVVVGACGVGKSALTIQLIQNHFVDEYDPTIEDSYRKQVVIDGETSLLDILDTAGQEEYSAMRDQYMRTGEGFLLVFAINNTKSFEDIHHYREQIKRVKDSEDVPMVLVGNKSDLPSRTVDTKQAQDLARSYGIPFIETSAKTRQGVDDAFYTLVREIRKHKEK
Description: as §1, §2, §3, §4, §5

[6] = molecular target: KRAS-G12D (Homo sapiens, UniProt P01116, G12D); assay: SOS-catalyzed nucleotide exchange assay (Procedure A, TR-FRET), KRAS-G12D; format: biochemical; conditions: nucleotide exchange, read-out: KRAS G12D GNE IC50
Sequence of KRAS-G12D (P01116 with tags, fused parts or gaps isoform P01116-2 G12D): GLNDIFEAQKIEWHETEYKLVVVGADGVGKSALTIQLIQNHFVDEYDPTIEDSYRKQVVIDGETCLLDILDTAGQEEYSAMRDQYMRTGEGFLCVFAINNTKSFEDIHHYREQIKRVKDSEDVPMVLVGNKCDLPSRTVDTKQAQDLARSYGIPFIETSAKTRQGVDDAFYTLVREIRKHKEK
Procedure, shortened: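 Signal ratio (520/495 nm, excitation 340 nm) reports Bodipy-GDP retention on biotinylated RAS after SOS-catalyzed exchange with 3 mM GTP. SOS was 40 nM, except 160 nM for G12V. Room-temperature exchange lasted 60 min (90 min for G12V), following a 60 min compound preincubation.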

[7] = test system: SW620 cells; assay: Cellular phospho-ERK assay, SW620 cells (homozygous KRAS-G12V); format: cell-based; conditions: Homo sapiens, read-out: SW620 pERK IC50
Procedure, shortened: as §7

[8] = test system: MKN-1 cells; assay: Cellular phospho-ERK assay, MKN-1 cells (amplified wild-type KRAS); format: cell-based; conditions: Homo sapiens, read-out: MKN1 pERK IC50
Procedure, shortened: as §7

[9] = SW-620, 2 hours compound incubation

Sequence of KRAS-G13D (P01116 with tags, fused parts or gaps isoform P01116-2 G13D): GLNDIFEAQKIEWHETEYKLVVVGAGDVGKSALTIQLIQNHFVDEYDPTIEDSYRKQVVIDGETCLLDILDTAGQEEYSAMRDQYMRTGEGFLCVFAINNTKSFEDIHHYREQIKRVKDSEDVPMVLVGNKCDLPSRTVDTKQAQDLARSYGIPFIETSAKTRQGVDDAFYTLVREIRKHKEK

Compound | IC50 [1] [nM] | IC50 [2] [nM] | IC50 ([3]; 2 hours compound incubation) [nM] | IC50 [4] [nM] | IC50 [5] [nM] | IC50 [6] [nM] | IC50 [7, 9] [nM] | IC50 ([8]; 2 hours compound incubation) [nM] | IC50 ([7]; SW-620, KRAS-G12V, 2 hours) [nM] | IC50 ([3]; KRAS-G12D, 2 hours) [nM] | IC50 ([8]; amplified wild-type KRAS, 2 hours) [nM]
Cc1cc2[nH]ncc2c(-c2nccc3c2sc2nc(OC[C@@]45CCCN4C[C@H](F)C5)nc(NC4CNC(=O)C4)c23)c1C(F)(F)F (stereo partly drawn) [Ex-192, 4-((2-(((2R,7aS)-2-fluoro-tetrahydro-1H-pyrrolizin-7a(5H)-yl)methoxy)-8-(6-methyl-5-(trifluorometh-yl)-1H-indazol-4-yl)pyrido [4′,3′:4,5]thieno[2,3-d]pyrimidin-4-yl)amino)-pyrrolidin-2-one] | 409 | 192 | 30000 | 418 | 121 | 283 | – | – | – | – | –
C[C@@]1(O)COCCN(c2nc(OC[C@@]34CCCN3C[C@H](F)C4)nc3sc4c(-c5c(-c6ccco6)c(Cl)cc6[nH]ncc56)nccc4c23)C1 [Ex-148, (6S)-4-(8-(6-chloro-5-(furan-2-yl)-1H-indazol-4-yl)-2-(((2R,7aS)-2-fluoro-tetrahydro-1H-pyr-rolizin-7a(5H)-yl)-methoxy)pyrido [4′,3′:4,5]thieno[2,3-d]pyrimidin-4-yl)-6-methyl-1,4-oxaze-pan-6-ol] | 20.4 | 9.35 | 91.4 | 27.6 | 112 | 6.61 | – | – | – | – | –
CN(C)C[C@@]1(COc2nc(N3CCOC[C@@](C)(O)C3)c3c(n2)sc2c(-c4c(C5CC5)c(C(F)(F)F)cc5[nH]ncc45)nccc23)CC1(F)F [Ex-206, (6S)-4-(8-(5-cyclo-propyl-6-(trifluoro-methyl)-1H-inda-zol-4-yl)-2-(((R)-1-((dimethylamino)-methyl)-2,2-difluorocycloprop-yl)methoxy)pyrido [4′,3′:4,5]thieno [2,3-d]pyrimidin-4-yl)-6-methyl-1,4-oxazepan-6-ol] | – | 22.2 | 24 | 23.5 | 3.57 | 7.07 | 15.4 | 22.9 | – | – | –
Cc1cc2[nH]ncc2c(-c2nccc3c2sc2nc(OC[C@@]45CCCN4C[C@H](F)C5)nc(N4CCOC[C@@](C)(O)C4)c23)c1-c1ccsc1 [Ex-139, (6S)-4-(2-(((2R, 7aS)-2-fluorotetra-hydro-1H-pyrrol-izin-7a(5H)-yl)meth-oxy)-8-(6-methyl-5-(thiophen-3-yl)-1H-indazol-4-yl)pyrido [4′,3′:4,5]thieno[2,3-d]pyrimidin-4-yl)-6-methyl-1,4-oxaze-pan-6-ol] | 377 | 128 | 663 | 319 | 159 | 129 | – | – | – | – | –
Cc1nc2[nH]nc(C)c2c(-c2nccc3c4c(N5CCOC[C@@](C)(O)C5)nc(OC[C@@]56CCCN5C[C@H](F)C6)nc4n(C)c23)c1C(F)(F)F [Ex-15, (6S)-4-(8-(3,6-dimethyl-5-(trifluoromethyl)-1H-pyrazolo[3,4-b]pyridin-4-yl)-2-(((2R,7aS)-2-fluorotetrahydro-1H-pyrrolizin-7a(5H)-yl)methoxy)-9-methyl-9H-pyrido[4′,3′:4,5]pyrrolo[2,3-d]pyrimidin-4-yl)-6-methyl-1,4-oxazepan-6-ol] | 5380 | 4930 | – | 8020 | 1970 | 9040 | – | – | – | – | –
C[C@@]1(O)COCCN(c2nc(OC[C@@]34CCCN3C[C@H](F)C4)nc3sc4c(-c5ccc(F)c6sc(N)c(C#N)c56)nccc4c23)C1 [Ex-275, 2-amino-7-fluoro-4-(2-(((2R,7aS)-2-fluoro-tetrahydro-1H-pyrrolizin-7a(5H)-yl)methoxy)-4-((S)-6-hydroxy-6-methyl-1,4-oxazepan-4-yl)pyrido[4′,3′:4,5]thi-eno[2,3-d]pyrimidin-8-yl)benzo[b]thiophene-3-carbonitrile] | 1200 | 2950 | – | 1520 | 2220 | 1310 | – | – | – | – | –
C[C@@]1(O)COCCN(c2nc(OC[C@@]34CCCN3C[C@H](F)C4)nc3sc4c(-c5c6cn[nH]c6cc6cccc(Cl)c56)nccc4c23)C1 [Ex-161, (6S)-4-(8-(5-chloro-1H-benzo[f]indazol-4-yl)-2-(((2R,7aS)-2-fluorotetrahydro-1H-pyrrolizin-7a(5H)-yl)methoxy)pyrido[4′,3′:4,5]thieno[2,3-d]pyrimidin-4-yl)-6-methyl-1,4-oxazepan-6-ol] | – | 11.4 | 61.7 | 15.2 | – | 6.04 | 32.1 | 28.4 | – | – | –
C[C@@]1(O)COCCN(c2nc(OC[C@]3(CN4CCC5(CC5)C4)CC3(F)F)nc3sc4c(-c5c(C6(F)CC6)c(Cl)cc6[nH]ncc56)nccc4c23)C1 [Ex-262, (6S)-4-(2-(((R)-1-((5-azaspiro[2.4]heptan-5-yl)methyl)-2,2-difluorocyclopropyl)methoxy)-8-(6-chloro-5-(1-fluorocyclopropyl)-1H-indazol-4-yl)pyrido[4′,3′:4,5]thieno[2,3-d]pyrimidin-4-yl)-6-methyl-1,4-oxazepan-6-ol] | – | 26.7 | 119 | 22.2 | – | 4.44 | 66.1 | 52.4 | – | – | –
Cc1cc2[nH]ncc2c(-c2nccc3c2sc2nc(OC[C@@]45CCCN4C[C@H](F)C5)nc(N4CCOC[C@@](C)(O)C4)c23)c1[C@@H]1C[C@H]1C (atropisomer, axis not shown; (aS)) [Ex-67, (S)-4-((R)-2-(((2R,7aS)-2-fluorotetrahydro-1H-pyrrolizin-7a(5H)-yl)methoxy)-8-(6-methyl-5-((1R,2R)-2-methylcyclopropyl)-1H-indazol-4-yl)pyrido[4′,3′:4,5]thieno [2,3-d]pyrimidin-4-yl)-6-methyl-1,4-oxazepan-6-o1] | – | 23.1 | – | 40 | – | 11.9 | – | – | 323 | 113 | 186

— US20260176289A1, “SMALL MOLECULE INHIBITORS OF KRAS PROTEINS” (Merck Sharp & Dohme LLC, priority 2022, published 2026)
